Experiment: Toxicokinetics of infigratinib in juvenile rat plasma after oral gavage
Format: in vivo, Crl:WI(Han) rat
Conditions: for RAUC: AUC vs first dosing day; for AUC(0-t): female, Crl:WI(Han), rat, plasma, po, 0.1 mg/kg/day
[1] = Female rats, 0.1 mg/kg/day oral, PND 7
[2] = Female rats, 0.1 mg/kg/day oral, PND 12
[3] = Female rats, 0.1 mg/kg/day oral, PND 17
[4] = Female rats, 0.1 mg/kg/day oral, PND 23
[5] = Female rats, 0.1 mg/kg/day oral, PND 35
[6] = Female rats, 0.3 mg/kg/day oral, PND 7
[7] = Female rats, 0.3 mg/kg/day oral, PND 12
[8] = Female rats, 0.3 mg/kg/day oral, PND 17
[9] = Female rats, 0.3 mg/kg/day oral, PND 23
[10] = Female rats, 0.3 mg/kg/day oral, PND 35
[11] = Female rats, 1.0 mg/kg/day oral, PND 7
[12] = Female rats, 1.0 mg/kg/day oral, PND 12
[13] = Female rats, 1.0 mg/kg/day oral, PND 17
[14] = Female rats, 1.0 mg/kg/day oral, PND 23
[15] = Female rats, 1.0 mg/kg/day oral, PND 35
[16] = Male rats, 0.1 mg/kg/day oral, PND 7
[17] = Male rats, 0.1 mg/kg/day oral, PND 12
[18] = Male rats, 0.1 mg/kg/day oral, PND 17
[19] = Male rats, 0.1 mg/kg/day oral, PND 23
[20] = Male rats, 0.1 mg/kg/day oral, PND 35
[21] = Male rats, 0.3 mg/kg/day oral, PND 7
[22] = Male rats, 0.3 mg/kg/day oral, PND 12
[23] = Male rats, 0.3 mg/kg/day oral, PND 17
[24] = Male rats, 0.3 mg/kg/day oral, PND 23
[25] = Male rats, 0.3 mg/kg/day oral, PND 35
[26] = Male rats, 1.0 mg/kg/day oral, PND 7
[27] = Male rats, 1.0 mg/kg/day oral, PND 12
[28] = Male rats, 1.0 mg/kg/day oral, PND 17
[29] = Male rats, 1.0 mg/kg/day oral, PND 23
[30] = Male rats, 1.0 mg/kg/day oral, PND 35

CCN1CCN(c2ccc(Nc3cc(N(C)C(=O)Nc4c(Cl)c(OC)cc(OC)c4Cl)ncn3)cc2)CC1 [infigratinib, 3-(2,6-Dichloro-3,5-dimethoxy-phenyl)-1-{6-[4-(4-ethyl-piperazin-1-yl)-phenylamino]-pyrimidin-4-yl}-1-methyl-urea]
Cmax/D [1]: 41.8 (ng/mL)/(mg/kg/day)
Tlast [1]: 24 h
Cmax/D [2]: 34.0 (ng/mL)/(mg/kg/day)
Tlast [2]: 24 h
RAUC [2]: 0.941 ratio
Cmax/D [3]: 90.6 (ng/mL)/(mg/kg/day)
Tlast [3]: 24 h
RAUC [3]: 0.839 ratio
Cmax/D [4]: 7.8 (ng/mL)/(mg/kg/day)
Tlast [4]: 12 h
RAUC [4]: 0.108 ratio
Cmax/D [5]: 3.0 (ng/mL)/(mg/kg/day)
Tlast [5]: 7 h
RAUC [5]: 0.0325 ratio
Cmax/D [6]: 64.7 (ng/mL)/(mg/kg/day)
Tlast [6]: 24 h
Cmax/D [7]: 49.7 (ng/mL)/(mg/kg/day)
Tlast [7]: 24 h
RAUC [7]: 0.751 ratio
Cmax/D [8]: 60.2 (ng/mL)/(mg/kg/day)
Tlast [8]: 24 h
RAUC [8]: 0.548 ratio
Cmax/D [9]: 7.49 (ng/mL)/(mg/kg/day)
Tlast [9]: 24 h
RAUC [9]: 0.103 ratio
Cmax/D [10]: 2.2 (ng/mL)/(mg/kg/day)
Tlast [10]: 12 h
RAUC [10]: 0.0249 ratio
Cmax/D [11]: 53.2 (ng/mL)/(mg/kg/day)
Tlast [11]: 24 h
Cmax/D [12]: 56.6 (ng/mL)/(mg/kg/day)
Tlast [12]: 24 h
RAUC [12]: 1.15 ratio
Cmax/D [13]: 41.2 (ng/mL)/(mg/kg/day)
Tlast [13]: 24 h
RAUC [13]: 0.974 ratio
Cmax/D [14]: 10.4 (ng/mL)/(mg/kg/day)
Tlast [14]: 24 h
RAUC [14]: 0.141 ratio
Cmax/D [15]: 4.04 (ng/mL)/(mg/kg/day)
Tlast [15]: 12 h
RAUC [15]: 0.0566 ratio
Cmax/D [16]: 32.1 (ng/mL)/(mg/kg/day)
Tlast [16]: 24 h
Cmax/D [17]: 33.2 (ng/mL)/(mg/kg/day)
Tlast [17]: 24 h
RAUC [17]: 1.24 ratio
Cmax/D [18]: 29.9 (ng/mL)/(mg/kg/day)
Tlast [18]: 24 h
RAUC [18]: 0.882 ratio
Cmax/D [19]: 5.77 (ng/mL)/(mg/kg/day)
Tlast [19]: 12 h
RAUC [19]: 0.12 ratio
Cmax/D [20]: 3.07 (ng/mL)/(mg/kg/day)
Tlast [20]: 12 h
RAUC [20]: 0.0613 ratio
Cmax/D [21]: 38.8 (ng/mL)/(mg/kg/day)
Tlast [21]: 24 h
Cmax/D [22]: 47.1 (ng/mL)/(mg/kg/day)
Tlast [22]: 24 h
RAUC [22]: 1.3 ratio
Cmax/D [23]: 27.1 (ng/mL)/(mg/kg/day)
Tlast [23]: 24 h
RAUC [23]: 0.898 ratio
Cmax/D [24]: 7.1 (ng/mL)/(mg/kg/day)
Tlast [24]: 24 h
RAUC [24]: 0.187 ratio
Cmax/D [25]: 3.08 (ng/mL)/(mg/kg/day)
Tlast [25]: 12 h
RAUC [25]: 0.0524 ratio
Cmax/D [26]: 37.3 (ng/mL)/(mg/kg/day)
Tlast [26]: 24 h
Cmax/D [27]: 68.8 (ng/mL)/(mg/kg/day)
Tlast [27]: 24 h
RAUC [27]: 1.59 ratio
Cmax/D [28]: 34.1 (ng/mL)/(mg/kg/day)
Tlast [28]: 24 h
RAUC [28]: 0.944 ratio
Cmax/D [29]: 11.2 (ng/mL)/(mg/kg/day)
Tlast [29]: 24 h
RAUC [29]: 0.233 ratio
Cmax/D [30]: 2.98 (ng/mL)/(mg/kg/day)
Tlast [30]: 12 h
RAUC [30]: 0.0648 ratio
AUC(0-t) [1]: 43 ng·h/mL
AUC(0-t) [2]: 40.5 ng·h/mL
AUC(0-t) [4]: 4.66 ng·h/mL
AUC(0-t) [5]: 1.4 ng·h/mL
